The test system of one experiment is A549. The experiment in a line: Cell-based assay, anti-proliferative activity (Cell Counting Kit-8, 72 hours). Particulars: Homo sapiens, read-out: A549 IC50. Summed up: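 IC50 values come from growth read-outs taken after the cells' exposure to each candidate inhibitor. Cells had been plated in 96-well microtiter plates beforehand.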
In general terms: Tetrazolium assays rely on reduction of a dye to a coloured formazan, in cell work by metabolically active cells.

Another experiment has as its target SUV39H2 (Homo sapiens (Human), UniProt Q9H5I1). The experiment in a line: biochemical. In kind it is biochemical. Particulars: 3H-SAM 100 nM, H3 Histone Peptide 350 nM, room temperature 3 hours. The protocol: Assay buffer (4 μL) was added into all the wells, including test compound and control wells (except for Sinefungin control wells), using the Multidrop Combi. The plate was centrifuged at 1000 rpm for 1 min. […] SUV39H2 (8 μL, final conc: optimized for each lot of the enzyme based on specific activity) was added by using the Multidrop Combi. The assay plate was centrifuged at 1000 rpm for 1 min. Assay buffer was used as background control, and incubated at room temperature for 3 hours. The reaction was stopped with 20 μL of 2.5 mg/mL Streptavidin SPA beads (final conc. 50 μg/well) in buffer using the Multidrop Combi and centrifuged for 1 min. The plate was loaded into the Trilux-Microbeta counter and a delayed read of 10 hours was made. The radioactive signal was measured at 1 min/well. Sinefungin and the internal standard compound were used as tool compounds to determine assay performance.
• The following calculations were made using the obtained CPM raw data: Software used: XLFit from IDBS.
For each test plate the following results were calculated: • Average, Standard Deviation, and % CV of Background Controls • Average, Standard Deviation, and % CV of Positive Controls • Z′ value of the plate • IC50 values of standard and test compounds (in nM) • R^2 value of fitted concentration response curve • Hill slope coefficient of fitted concentration response curve • Signal to Noise Ratio

Setting [1] is: A549 cells, 72 hours exposure, Cell Counting Kit-8.

Structures can show the parent of a compound that is named as a salt. Where two headings read alike, the source gives them in different places.

SUV39H2, sequence (Q9H5I1 whole entry): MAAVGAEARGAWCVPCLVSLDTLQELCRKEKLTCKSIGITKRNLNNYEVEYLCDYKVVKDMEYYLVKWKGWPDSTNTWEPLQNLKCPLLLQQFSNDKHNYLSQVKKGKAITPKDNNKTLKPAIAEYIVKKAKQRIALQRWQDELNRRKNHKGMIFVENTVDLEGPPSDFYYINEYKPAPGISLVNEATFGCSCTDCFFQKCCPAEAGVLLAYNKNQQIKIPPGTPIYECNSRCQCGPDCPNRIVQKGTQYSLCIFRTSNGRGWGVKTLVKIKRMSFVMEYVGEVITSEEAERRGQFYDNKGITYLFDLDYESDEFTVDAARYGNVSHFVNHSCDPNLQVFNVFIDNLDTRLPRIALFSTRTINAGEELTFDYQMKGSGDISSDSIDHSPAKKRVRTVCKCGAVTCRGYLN

For the molecule `COc1cc(OC)c(-c2cn3ccc(N4C[C@H](NCc5ccncc5)[C@@H](O)C4)cc3n2)cc1Cl` (relative stereo) [Example 439, trans-1-(2-(5-chloro-2,4-dimethoxyphenyl)imidazo[1,2-a]pyridin-7-yl)-4-((pyridin-4-ylmethyl)amino)pyrrolidin-3-ol], the figures for the IC50 in the experiment with A549 (setting [1]) and against SUV39H2 were 10000 nM and 6.76 nM, respectively.

Take `COc1cc(OC)c(-c2cn3ccc(N4CCN(C(C)=O)CC4)cc3n2)cc1Cl` [Example 307, 1-(4-(2-(5-chloro-2,4-dimethoxyphenyl)imidazo[1,2-a]pyridin-7-yl)piperazin-1-yl)ethanone]: the figures for the IC50 in the experiment on A549 (setting [1]) and at SUV39H2 were 2200 nM and 2 nM, respectively.

In the case of `COc1cc(OC)c(-c2cn3ccc(N4CCN(C(C)=O)CC4C)cc3n2)cc1Cl` (stereo not drawn) [Example 308, 1-(4-(2-(5-chloro-2,4-dimethoxyphenyl)imidazo[1,2-a]pyridin-7-yl)-3-methylpiperazin-1-yl)ethanone], the IC50 with A549 (setting [1]) was 8600 nM; at SUV39H2, 3.5 nM.

Take `COc1cc(OC)c(-c2cn3ccc(N4CCN(C(C)=O)C(C)C4)cc3n2)cc1Cl` (stereo not drawn) [Example 309, 1-(4-(2-(5-chloro-2,4-dimethoxyphenyl)imidazo[1,2-a]pyridin-7-yl)-2-methylpiperazin-1-yl)ethanone]: the half-inhibitory concentration (IC50) in the experiment with A549 (setting [1]) is 2100 nM; against SUV39H2, 1.97 nM.

Consider `COCC(=O)N1CCN(c2ccn3cc(-c4cc(Cl)c(OC)cc4OC)nc3c2)CC1C` (stereo not drawn) [Example 310, 1-(4-(2-(5-chloro-2,4-dimethoxyphenyl)imidazo[1,2-a]pyridin-7-yl)-2-methylpiperazin-1-yl)-2-methoxyethanone], for which the IC50 in the experiment on A549 (setting [1]) came to 10000 nM; against SUV39H2, 1.78 nM.

`COc1cc(OC)c(-c2cn3ccc(N4CCN(S(C)(=O)=O)CC4C)cc3n2)cc1Cl` (stereo not drawn) [Example 311, 2-(5-chloro-2,4-dimethoxyphenyl)-7-(2-methyl-4-(methylsulfonyl)piperazin-1-yl)imidazo[1,2-a]pyridine]: the values for the IC50 in the experiment on A549 (setting [1]) and on SUV39H2 were 3800 nM and 4.94 nM, respectively.

Take `COc1cc(OC)c(-c2cn3ccc(N4CCN(S(C)(=O)=O)C(C)C4)cc3n2)cc1Cl` (stereo not drawn) [Example 312, 2-(5-chloro-2,4-dimethoxyphenyl)-7-(3-methyl-4-(methylsulfonyl)piperazin-1-yl)imidazo[1,2-a]pyridine]: the figures for the IC50 in the experiment on A549 (setting [1]) and on SUV39H2 were 2500 nM and 3.81 nM, respectively.

`COc1cc(OC)c(-c2cn3ccc(N4CCN(C(=O)c5ccccc5O)CC4)cc3n2)cc1Cl` [Example 314, (4-(2-(5-chloro-2,4-dimethoxyphenyl)imidazo[1,2-a]pyridin-7-yl)piperazin-1-yl)(2-hydroxyphenyl)methanone]: the results for the IC50 with A549 (setting [1]) and at SUV39H2 were 1700 nM and 7.29 nM, respectively.

`COc1cc(OC)c(-c2cn3ccc(N4CCN(C(=O)CCCCNC(=O)OC(C)(C)C)CC4)cc3n2)cc1Cl` [Example 315, tert-butyl (5-(4-(2-(5-chloro-2,4-dimethoxyphenyl)imidazo[1,2-a]pyridin-7-yl)piperazin-1-yl)-5-oxopentyl)carbamate]: the IC50 in the experiment on A549 (setting [1]) was 4400 nM; on SUV39H2 it was 10.5 nM.

Turning to `COc1cc(OC)c(-c2cn3ccc(N[C@H]4CC[C@H](CN5CCN(c6ncccn6)CC5)CC4)cc3n2)cc1Cl` [Example 316, 2-(5-chloro-2,4-dimethoxyphenyl)-N-((trans)-4-((4-(pyrimidin-2-yl)piperazin-1-yl)methyl)cyclohexyl)imidazo[1,2-a]pyridin-7-amine], the IC50 in the experiment with A549 (setting [1]) amounted to 700 nM; against SUV39H2 it was 77 nM.

In the case of `COc1cc(OC)c(-c2cn3ccc(N4CCN(c5cncnc5)CC4)cc3n2)cc1Cl` [Example 317, 2-(5-chloro-2,4-dimethoxyphenyl)-7-(4-(pyrimidin-5-yl)piperazin-1-yl)imidazo[1,2-a]pyridine], the IC50 stood at 650 nM in the experiment on A549 (setting [1]) and 11.6 nM at SUV39H2.

As to `COc1cc(OC)c(-c2cn3ccc(N[C@H]4CC[C@H](Nc5ncccn5)CC4)cc3n2)cc1Cl` [Example 318, (1r,4r)-N^1-(2-(5-chloro-2,4-dimethoxyphenyl)imidazo[1,2-a]pyridin-7-yl)-N^4-(pyrimidin-2-yl)cyclohexane-1,4-diamine hydrochloride], the IC50 came to 180 nM in the experiment with A549 (setting [1]) and 9.73 nM at SUV39H2.

As for `COc1cc(OC)c(-c2cn3ccc(N4CCN(C(=O)c5ccncc5)CC4)cc3n2)cc1Cl` [Example 319, (4-(2-(5-chloro-2,4-dimethoxyphenyl)imidazo[1,2-a]pyridin-7-yl)piperazin-1-yl)(pyridin-4-yl)methanone], the IC50 in the experiment with A549 (setting [1]) amounted to 4600 nM; on SUV39H2, 16.4 nM.

For the molecule `COc1cc(OC)c(-c2cn3ccc(NC4CCC(NCc5ccc(F)cc5)CC4)cc3n2)cc1Cl` (stereo not drawn) [Example 320, (1r,4r)-N^1-(2-(5-chloro-2,4-dimethoxyphenyl)imidazo[1,2-a]pyridin-7-yl)-N^4-(4-fluorobenzyl)cyclohexane-1,4-diamine], the IC50 in the experiment with A549 (setting [1]) came out at 430 nM; against SUV39H2 it was 95 nM.

Take `COc1ccc(N2CCN(c3ccn4cc(-c5cc(Cl)c(OC)cc5OC)nc4c3)CC2)nc1` [Example 321, 2-(5-chloro-2,4-dimethoxyphenyl)-7-(4-(5-methoxypyridin-2-yl)piperazin-1-yl)imidazo[1,2-a]pyridine]: the IC50 in the experiment on A549 (setting [1]) came out at 870 nM; on SUV39H2, 87.4 nM.

Turning to `COc1cc(OC)c(-c2cn3ccc(N4CCN(c5ccncc5F)CC4)cc3n2)cc1Cl` [Example 322, 2-(5-chloro-2,4-dimethoxyphenyl)-7-(4-(3-fluoropyridin-4-yl)piperazin-1-yl)imidazo[1,2-a]pyridine], the concentration for half-maximal inhibition (IC50) with A549 (setting [1]) came to 560 nM; on SUV39H2 it was 57.5 nM.

Regarding `COc1cc(OC)c(-c2cn3ccc(N4CCN(c5ccc(N)nc5)CC4)cc3n2)cc1Cl` [Example 323, 5-(4-(2-(5-chloro-2,4-dimethoxyphenyl)imidazo[1,2-a]pyridin-7-yl)piperazin-1-yl)pyridin-2-amine], the IC50 is 930 nM in the experiment on A549 (setting [1]) and 30.4 nM against SUV39H2.

For the molecule `COc1cc(OC)c(-c2cn3ccc(NC4CCN(Cc5csc([N+](=O)[O-])c5)CC4)cc3n2)cc1Cl` [Example 324, 2-(5-chloro-2,4-dimethoxyphenyl)-N-(1-((5-nitrothiophen-3-yl)methyl)piperidin-4-yl)imidazo[1,2-a]pyridin-7-amine], the IC50 in the experiment with A549 (setting [1]) was found to be 590 nM; on SUV39H2, 33.9 nM.

Turning to `COc1cc(OC)c(-c2cn3ccc(N[C@H]4CC[C@@H](NCc5ccccc5)CC4)cc3n2)cc1Cl` [Example 325, cis-N^1-benzyl-N^4-(2-(5-chloro-2,4-dimethoxyphenyl)imidazo[1,2-a]pyridin-7-yl)cyclohexane-1,4-diamine], the values for the IC50 with A549 (setting [1]) and against SUV39H2 were 800 nM and 23.4 nM, respectively.

`COc1cc(OC)c(-c2cn3ccc(N[C@H]4CC[C@@H](NCc5ccc(F)cc5)CC4)cc3n2)cc1Cl` [Example 326, cis-N^1-(2-(5-chloro-2,4-dimethoxyphenyl)imidazo[1,2-a]pyridin-7-yl)-N^4-(4-fluorobenzyl)cyclohexane-1,4-diamine]: the 50% inhibitory concentration (IC50) came to 660 nM in the experiment on A549 (setting [1]) and 20.3 nM against SUV39H2.

For `COc1cc(OC)c(-c2cn3ccc(N4CCN(c5cc(C)ccn5)CC4)cc3n2)cc1Cl` [Example 327, 2-(5-chloro-2,4-dimethoxyphenyl)-7-(4-(4-methylpyridin-2-yl)piperazin-1-yl)imidazo[1,2-a]pyridine], the 50% inhibitory concentration (IC50) in the experiment with A549 (A549, 72 h) was determined as 870 nM; on SUV39H2, 46.7 nM.

Consider `COc1cc(OC)c(-c2cn3ccc(N[C@H]4CC[C@H](NCc5ccc(C)cc5)CC4)cc3n2)cc1Cl` [Example 328, (1r,4r)-N^1-(2-(5-chloro-2,4-dimethoxyphenyl)imidazo[1,2-a]pyridin-7-yl)-N^4-(4-methylbenzyl)cyclohexane-1,4-diamine (2,2,2-trifluoroacetate)], for which the figures for the half-inhibitory concentration (IC50) with A549 (setting [1]) and at SUV39H2 were 360 nM and 60.5 nM, respectively.

`COc1cc(OC)c(-c2cn3ccc(N[C@H]4CC[C@@H](NCc5ccc(C)cc5)CC4)cc3n2)cc1Cl` [Example 329, cis-N^1-(2-(5-chloro-2,4-dimethoxyphenyl)imidazo[1,2-a]pyridin-7-yl)-N^4-(4-methylbenzyl)cyclohexane-1,4-diamine]: the figures for the IC50 in the experiment on A549 (setting [1]) and on SUV39H2 were 780 nM and 38.8 nM, respectively.

On to `COc1cc(OC)c(-c2cn3ccc(N4CCN(c5ccnc(C#N)c5)CC4)cc3n2)cc1Cl` [Example 330, 4-(4-(2-(5-chloro-2,4-dimethoxyphenyl)imidazo[1,2-a]pyridin-7-yl)piperazin-1-yl)picolinonitrile], for which the IC50 in the experiment with A549 (setting [1]) came to 560 nM; at SUV39H2 it was 98 nM.

For `COc1cc(OC)c(-c2cn3ccc(N4CCN(c5ccnc(NC6CC6)n5)CC4)cc3n2)cc1Cl` [Example 331, 4-(4-(2-(5-chloro-2,4-dimethoxyphenyl)imidazo[1,2-a]pyridin-7-yl)piperazin-1-yl)-N-cyclopropylpyrimidin-2-amine], the IC50 in the experiment with A549 (setting [1]) was found to be 820 nM; on SUV39H2, 56.9 nM.

With `COc1cc(OC)c(-c2cn3ccc(N[C@H]4C[C@H]5CC[C@@H](C4)N5CC4CCCCC4)cc3n2)cc1Cl` [Example 434, 2-(5-chloro-2,4-dimethoxyphenyl)-N-((1R,3r,5S)-8-(cyclohexylmethyl)-8-azabicyclo[3.2.1]octan-3-yl)imidazo[1,2-a]pyridin-7-amine], the midpoint of inhibition on SUV39H2, the IC50, lay at 88.7 nM.

The IC50 is the midpoint of a concentration-inhibition curve.
